{"source": "patent USRE47350E1", "about": "“Pharmaceutical formulations containing dopamine receptor ligands” (Richter Gedeon Nyrt., priority 2008, dated 2019)", "key": {"[1]": {"assay": "Double-blind placebo controlled single dose pharmacokinetic study of cariprazine capsules in healthy male volunteers (Example 4)", "format": "in vivo, human", "conditions": "for Cmax / Tmax / half-life / AUC(0-t): male, human, plasma, oral; for AUC(0-t): read-out: AUC0-168", "description": "The pharmacokinetic parameters described herein include area under the plasma concentration-time curve (AUC0-t and AUC0-∞), maximum plasma concentration (Cmax), time of maximum plasma concentration (Tmax) and terminal elimination half-life (T1/2). The time of maximum concentration, Tmax, is determined as the time corresponding to Cmax. Area under the plasma concentration-time curve up to the time corresponding to the last measurable concentration (AUC0-t) is calculated by numerical integration using the linear trapezoidal rule as follows: The terminal half-life (T1/2) is calculated using the following equation: The area under the plasma concentration-time curve from time zero to infinity is calculated according to the following equation: A double-blind, placebo controlled single dose study of the pharmacokinetic parameters of cariprazine (capsules) in healthy male volunteers was conducted. [table] The composition of the capsules is given below in Table 31. The mean pharmacokinetic parameters observed after administration of a single dose of 0.5 to 2.5 mg cariprazine are shown below in Table 32."}, "[2]": {"assay": "Hydrolytic degradation when formulated with commonly used excipients (general statements)", "format": "physicochemical", "from_the_text": "The formation of a degradation product such as De-BOC in a pharmaceutical formulation is detrimental to activity. Moreover, if the amount of degradation product exceeds FDA guidelines, additional safety and toxicology testing must be undertaken. Thus, it is important that stable and bioavailable formulations containing, for example, cariprazine and its salts, be developed, in which the amount of degradation product present falls within accepted FDA guidelines.\nThe preparation of stable and bioavailable dosage forms containing compounds of formula (I) is; however, not straightforward."}, "[3]": {"assay": "Linear calculated pharmacokinetic parameters (Table 33)", "format": "in vivo", "conditions": "human, plasma, po; for AUC(0-t): read-out: Mean AUC0-168", "description": "Linear calculated pharmacokinetic parameters (based on the 2.0 mg data (Table 35, 80% of AUClast, Treatment I) for dosages greater than 2.0 mg and on the 0.5 mg data for dosages lower than 0.5 mg (Table 33) are shown in Table 33."}, "[4]": {"assay": "Single-center, randomized, open-label, parallel-group single-dose study, 2-mg tablet fasted/fed (Example 5)", "format": "in vivo", "conditions": "both sexes, human, plasma, po, mean, single oral 2-mg tablet; for half-life: read-out: T½ (converted)", "description": "The objectives of this study were (i) to assess the effect of food on the oral bioavailability of cariprazine (2-mg tablet), (ii) to assess the effect of gender on the oral bioavailability of cariprazine after a single oral dose (2-mg tablet), and (iii) to evaluate the pharmacokinetics of cariprazine and its metabolites after an oral dose (2-mg tablet). This clinical study was conducted as a single-center, randomized, open-label, parallel-group single-dose study. A total of 42 healthy male and female patients aged 18-45 years were selected, with an approximate male-to-female ratio of 1:1. Dosing occurred in two treatment sessions (Treatment 1 and Treatment 2) separated by 5 to 7 days. The subjects were randomized with ˜1:1 male-female ratio to receive one of the following two treatments: • Treatment 1: • Single oral dose of one 2-mg cariprazine tablet under fasted conditions (12 female, 11 male subjects) • Treatment 2: • Single oral dose of one 2-mg cariprazine tablet under fed conditions (10 female, 9 male subjects) Subjects were given the study drug with 240 mL of water in the clinic under fed/fasted conditions at 0800 hours on Day 1. Subjects taking Treatment 1 underwent a 10-hour overnight fast before dosing on Day 1 and continued fasting for an additional 4 hours postdose. Subjects taking Treatment 2 underwent a 10-hour overnight fast before eating a US Food and Drug Administration standardized high-fat breakfast at 0730 hours on Dosing Day 1. This study was 30 days in duration (Day −1 through the last pharmacokinetic (PK) blood sample collection on Day 29). Blood sampling was performed at the following times to determine cariprazine plasma concentrations: 0.0 (predose), 0.5, 1, 2, 3, 4, 6, 8, 12, 24, 36, 48, 72, 96, 168, 336, 504 and 672 hours postdose."}, "[5]": {"assay": "Multiple dose study in healthy male volunteers (Example 6)", "format": "in vivo", "conditions": "human, plasma, fasted; for AUC: read-out: AUC0-τ", "description": "Thirty-two healthy male subjects (mean age=24.9 years) were randomized into 4 groups (I-IV). In each group, 2 subjects received placebo and 6 subjects received one of the following treatments: • (I) 7 doses of 0.5 mg cariprazine administered every other day; • (II) 14 doses of 0.5 mg cariprazine every day; • (III) 2 doses of 0.5 mg cariprazine followed by 12 doses of 1.0 mg cariprazine every day; and • (IV) 21 doses of 1.0 mg cariprazine every day. Plasma samples were analyzed for cariprazine by a validated LC-MS/MS assay (Internal Standards: deuterated compounds; Sample preparation: Liquid-liquid extraction after alkalization; Sample Volume: 1 mL; Calibration Range: 0.05-25 ng/mL; Inonization: +ESI with MRM mode). The design of the study is shown below in Table 35. [table]"}, "[6]": {"conditions": "mean, single dose 0.5 mg capsules, fasted, Group III Period 1"}, "[7]": {"conditions": "mean, single dose 1 mg capsules, fasted, Group I Period 1"}, "[8]": {"conditions": "mean, single dose 1.5 mg capsules, fasted, Group II Period 2"}, "[9]": {"conditions": "mean, single dose 2 mg capsules, fasted, Group I Period 2"}, "[10]": {"conditions": "mean, single dose 2.5 mg capsules, fasted, Group II Period 1"}, "[11]": {"conditions": "0.5 mg, Group I: 7 doses of 0.5 mg every other day"}, "[12]": {"conditions": "0.5 mg, Group II: 14 doses of 0.5 mg every day"}, "[13]": {"conditions": "1 mg, Group IV: 21 doses of 1.0 mg every day"}, "[14]": {"conditions": "Group III: 2 doses of 0.5 mg followed by 12 doses of 1.0 mg every day"}}, "note": "Read-outs that look alike come from different tables or passages of the source.", "data": [{"smiles": "CN(C)C(=O)N[C@H]1CC[C@H](CCN2CCN(c3cccc(Cl)c3Cl)CC2)CC1.Cl", "note": "[cariprazine hydrochloride, trans-1{4-[2-[4-(2,3-dichlorophenyl)-piperazin-1-yl]-ethyl]-cyclohexyl}-3,3-dimethyl-urea hydrochloride]", "values": [{"measurement": "dose proportionality of exposure relative to mean AUC", "setting": "[1]; single-dose range of 0.5 mg to 2.5 mg", "result": "approximate dose proportionality"}, {"measurement": "stability toward hydrolytic degradation product formation", "setting": "[2]", "result": "undergoes hydrolytic cleavage of the amide bond"}]}, {"smiles": "CN(C)C(=O)N[C@H]1CC[C@H](CCN2CCN(c3cccc(Cl)c3Cl)CC2)CC1", "note": "[cariprazine, trans-1{4-[2-[4-(2,3-dichlorophenyl)-piperazin-1-yl]-ethyl]-cyclohexyl}-3,3-dimethyl-urea]", "values": [{"measurement": "Cmax", "setting": "[1]; [6]", "result": 0.14, "unit": "ng/mL"}, {"measurement": "Tmax", "setting": "[1]; [6]", "result": 6, "unit": "h"}, {"measurement": "half-life", "setting": "[1]; [6]", "result": 217, "unit": "h"}, {"measurement": "AUC(0-t)", "setting": "[1]; [6]", "result": 14.1, "unit": "ng·h/mL"}, {"measurement": "Cmax", "setting": "[1]; [7]", "result": 0.76, "unit": "ng/mL"}, {"measurement": "Tmax", "setting": "[1]; [7]", "result": 3, "unit": "h"}, {"measurement": "half-life", "setting": "[1]; [7]", "result": 185, "unit": "h"}, {"measurement": "AUC(0-t)", "setting": "[1]; [7]", "result": 35.4, "unit": "ng·h/mL"}, {"measurement": "Cmax", "setting": "[1]; [8]", "result": 1.19, "unit": "ng/mL"}, {"measurement": "Tmax", "setting": "[1]; [8]", "result": 3, "unit": "h"}, {"measurement": "half-life", "setting": "[1]; [8]", "result": 130, "unit": "h"}, {"measurement": "AUC(0-t)", "setting": "[1]; [8]", "result": 46.7, "unit": "ng·h/mL"}, {"measurement": "Cmax", "setting": "[1]; [9]", "result": 2.53, "unit": "ng/mL"}, {"measurement": "Tmax", "setting": "[1]; [9]", "result": 3, "unit": "h"}, {"measurement": "half-life", "setting": "[1]; [9]", "result": 130, "unit": "h"}, {"measurement": "AUC(0-t)", "setting": "[1]; [9]", "result": 95.3, "unit": "ng·h/mL"}, {"measurement": "Cmax", "setting": "[1]; [10]", "result": 2.5, "unit": "ng/mL"}, {"measurement": "Tmax", "setting": "[1]; [10]", "result": 4, "unit": "h"}, {"measurement": "half-life", "setting": "[1]; [10]", "result": 138, "unit": "h"}, {"measurement": "AUC(0-t)", "setting": "[1]; [10]", "result": 97.5, "unit": "ng·h/mL"}, {"measurement": "Tmax", "setting": "[1]; single dose 0.5 to 2.5 mg", "result": "3 to 6", "unit": "h"}, {"measurement": "Cmax", "setting": "[3]; dose 0.1 mg", "result": 0.03, "unit": "ng/mL"}, {"measurement": "AUC(0-t)", "setting": "[3]; dose 0.1 mg", "result": 2.82, "unit": "ng·h/mL"}, {"measurement": "Cmax", "setting": "[3]; dose 0.25 mg", "result": 0.09, "unit": "ng/mL"}, {"measurement": "AUC(0-t)", "setting": "[3]; dose 0.25 mg", "result": 1.05, "unit": "ng·h/mL"}, {"measurement": "Cmax", "setting": "[3]; dose 3 mg", "result": 3.8, "unit": "ng/mL"}, {"measurement": "AUC(0-t)", "setting": "[3]; dose 3 mg", "result": 96.8, "unit": "ng·h/mL"}, {"measurement": "Cmax", "setting": "[3]; dose 4.5 mg", "result": 5.7, "unit": "ng/mL"}, {"measurement": "AUC(0-t)", "setting": "[3]; dose 4.5 mg", "result": 145, "unit": "ng·h/mL"}, {"measurement": "Cmax", "setting": "[3]; dose 5 mg", "result": 6.33, "unit": "ng/mL"}, {"measurement": "AUC(0-t)", "setting": "[3]; dose 5 mg", "result": 161, "unit": "ng·h/mL"}, {"measurement": "Cmax", "setting": "[3]; dose 6 mg", "result": 7.6, "unit": "ng/mL"}, {"measurement": "AUC(0-t)", "setting": "[3]; dose 6 mg", "result": 194, "unit": "ng·h/mL"}, {"measurement": "Cmax", "setting": "[3]; dose 7.5 mg", "result": 9.5, "unit": "ng/mL"}, {"measurement": "AUC(0-t)", "setting": "[3]; dose 7.5 mg", "result": 242, "unit": "ng·h/mL"}, {"measurement": "Cmax", "setting": "[3]; dose 9 mg", "result": 11.4, "unit": "ng/mL"}, {"measurement": "AUC(0-t)", "setting": "[3]; dose 9 mg", "result": 290, "unit": "ng·h/mL"}, {"measurement": "Cmax", "setting": "[3]; dose 12.5 mg", "result": 15.8, "unit": "ng/mL"}, {"measurement": "AUC(0-t)", "setting": "[3]; dose 12.5 mg", "result": 404, "unit": "ng·h/mL"}, {"measurement": "Cmax", "setting": "[3]; dose 15 mg", "result": 19, "unit": "ng/mL"}, {"measurement": "AUC(0-t)", "setting": "[3]; dose 15 mg", "result": 484, "unit": "ng·h/mL"}, {"measurement": "AUC(0-inf)", "setting": "[4]; Fed", "result": 97, "unit": "ng·h/mL"}, {"measurement": "AUC(0-t)", "setting": "[4]; Fed", "result": 89.2, "unit": "ng·h/mL"}, {"measurement": "Cmax", "setting": "[4]; Fed", "result": 1.72, "unit": "ng/mL"}, {"measurement": "Tmax", "setting": "[4]; Fed", "result": 9.21, "unit": "h"}, {"measurement": "half-life", "setting": "[4]; Fed", "result": 198, "unit": "h"}, {"measurement": "AUC(0-inf)", "setting": "[4]; Treatment 1 (Fasted)", "result": 89.9, "unit": "ng·h/mL"}, {"measurement": "AUC(0-t)", "setting": "[4]; Treatment 1 (Fasted)", "result": 80.7, "unit": "ng·h/mL"}, {"measurement": "Cmax", "setting": "[4]; Treatment 1 (Fasted)", "result": 1.99, "unit": "ng/mL"}, {"measurement": "Tmax", "setting": "[4]; Treatment 1 (Fasted)", "result": 4.91, "unit": "h"}, {"measurement": "half-life", "setting": "[4]; Treatment 1 (Fasted)", "result": 203, "unit": "h"}, {"measurement": "Cmax", "setting": "[5]; [11]", "result": 1.03, "unit": "ng/mL"}, {"measurement": "AUC", "setting": "[5]; [11]", "result": 32.9, "unit": "ng·h/mL"}, {"measurement": "Tmax", "setting": "[5]; 0.5 mg, Group I: 7 doses of 0.5 mg every other day, read-out: tmax", "result": 4, "unit": "h"}, {"measurement": "Cmax", "setting": "[5]; [12]", "result": 1.42, "unit": "ng/mL"}, {"measurement": "AUC", "setting": "[5]; [12]", "result": 25, "unit": "ng·h/mL"}, {"measurement": "Tmax", "setting": "[5]; 0.5 mg, Group II: 14 doses of 0.5 mg every day, read-out: tmax", "result": 3.5, "unit": "h"}, {"measurement": "Cmax", "setting": "[5]; [13]", "result": 3.9, "unit": "ng/mL"}, {"measurement": "AUC", "setting": "[5]; [13]", "result": 56.8, "unit": "ng·h/mL"}, {"measurement": "Tmax", "setting": "[5]; 1 mg, Group IV: 21 doses of 1.0 mg every day, read-out: tmax (range only printed)", "result": "2 to 3", "unit": "h"}, {"measurement": "Cmax", "setting": "[5]; [14]", "result": 3.19, "unit": "ng/mL"}, {"measurement": "AUC", "setting": "[5]; [14]", "result": 53.6, "unit": "ng·h/mL"}, {"measurement": "Tmax", "setting": "[5]; Group III: 2 doses of 0.5 mg followed by 12 doses of 1.0 mg every day, read-out: tmax", "result": 4, "unit": "h"}]}]}
